Measurements taken from US8470344B2, “Aqueous dispersions and solutions of difficult to dissolve materials and methods of their preparation” (Teva Pharmaceutical Industries Ltd., priority 2005, dated 2013).

What was measured:
[1] = Dissolving or dispersing the compound-covered substrate matrix (dry powder) in water; format: physicochemical
Protocol: 1 mL of the Latanoprost solution (6.4 mg/mL) in ethanol was added to a mixture of NaH2PO4*H2O (0.553 g) and Na2HPO4 (0.564 g). The resulting mixture was dried under reduced pressure at room temperature to yield dry powder particles having latanoprost on the surface thereof. The dry powder was dissolved in water (120 mL) to form a solution. Benzalkonium chloride was added to the solution.
Latanoprost (17.97 mg) was dissolved in acetonitrile (5 mL). 1.5 mL of this solution were added to mixture of NaH2PO4 (0.464 g) and Na2HPO4 (0.469 g). The resulting mixture was dried under reduced pressure to obtain a dry powder. 50 mL of water were added to dry powder and stirred during 5 minutes. A fine suspension of Latanoprost with concentration about 0.01% (w/v) was obtained. 50 mL of water, containing Benzalkonium chloride and sodium chloride, were added to this suspension and stirred. The obtained clear solution of Latanoprost had concentration 0.005% (w/v).
Dexamethasone (104.05 mg) was dissolved in acetonitrile (5 mL). 1 mL of this solution was added to 545 mg of NaH2PO4*H2O and the mixture was dried in a reduced pressure for 15 hours. 20 mL of water were added and mixture was stirred. A fine suspension of dexamethasone (concentration about 0.1% w/v) was obtained.

[2] = Comparative example: direct dissolution of latanoprost in water containing NaH2PO4 with stirring; format: physicochemical
Protocol: Latanoprost (5.621 mg) was dissolved in water (100 mL), containing NaH2PO4 (0.463 g). The mixture was stirred for 120 minutes.
The mixture from Example 3 was heated at 40° C. with stirring for 120 minutes. A solution of Latanoprost with concentration 0.00407% (w/v, or 81.4% of target concentration 0.005%) was obtained.

## CC(C)OC(=O)CCC/C=C\C[C@@H]1[C@@H](CC[C@@H](O)CCc2ccccc2)[C@H](O)C[C@@H]1O [Latanoprost, Isopropyl (Z)-7-{(1R,2R,3R,5S)-3,5-dihydroxy-2-[3(R)-(3-hydroxyl-5-phenyl)pentyl]cyclopentyl}-5-heptenoate]
[1]; Example 1: ethanol solution dried on NaH2PO4*H2O/Na2HPO4, powder dissolved in water (120 mL), benzalkonium chloride added, room temperature
  content of Latanoprost in resultant solution: 0.005 % (w/v)
[1]; Example 1: powder dissolved in water (120 mL), benzalkonium chloride added
  appearance and stability of resultant solution: transparent and stable
[1]; Example 2: acetonitrile solution dried on NaH2PO4/Na2HPO4, 50 mL water, stirred 5 minutes
  concentration of fine suspension of Latanoprost: about 0.01 % (w/v)
[1]; Example 2: after further 50 mL water containing benzalkonium chloride and sodium chloride
  concentration of obtained clear solution of Latanoprost: 0.005 % (w/v)
[2]; Example 3 (comparative): 5.621 mg in water (100 mL) with NaH2PO4, stirred 120 minutes
  Latanoprost concentration of aqueous solution: 0.00015 % (w/v)
[2]; Example 3 (comparative): stirred 120 minutes, no heating
  percent of target concentration of 0.005%: 30%
[2]; Example 4 (comparative): heated at 40° C. with stirring for 120 minutes
  percent of target concentration 0.005%: 81.4%
[2]; Example 4 (comparative): mixture from Example 3 heated at 40° C. with stirring for 120 minutes
  concentration of solution of Latanoprost: 0.00407 % (w/v)
